The values below come from patent publication US8017637B2, “Inhibitors of cdc phosphatases” (Ipsen Pharma S.A.S., priority 2004, dated 2011).

As a reminder, the melting point is the temperature of the solid-liquid transition.

pIC50: −log10 of the molar value. Some results are limits rather than exact numbers.

In data set [1] the target is T1, purified recombinant enzyme Cdc25-C (MBP-Cdc25C) (Homo sapiens, UniProt P30307).
T1 construct: made in house
T1 sequence (P30307 1-473): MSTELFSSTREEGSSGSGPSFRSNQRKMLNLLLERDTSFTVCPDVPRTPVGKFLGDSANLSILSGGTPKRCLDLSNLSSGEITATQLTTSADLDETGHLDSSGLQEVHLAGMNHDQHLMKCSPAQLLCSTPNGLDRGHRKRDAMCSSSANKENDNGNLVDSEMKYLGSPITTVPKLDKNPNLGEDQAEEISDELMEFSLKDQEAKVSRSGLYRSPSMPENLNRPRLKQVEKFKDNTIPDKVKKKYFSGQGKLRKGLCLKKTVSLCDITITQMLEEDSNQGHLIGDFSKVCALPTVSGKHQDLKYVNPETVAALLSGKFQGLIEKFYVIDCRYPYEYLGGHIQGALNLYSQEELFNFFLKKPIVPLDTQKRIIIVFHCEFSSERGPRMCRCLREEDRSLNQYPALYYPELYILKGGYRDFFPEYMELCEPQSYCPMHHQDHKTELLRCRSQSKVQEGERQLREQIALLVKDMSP
Nature of the data set: Measurement of the phosphatase activity of the purified recombinant enzyme Cdc25C (OMFP dephosphorylation, fluorescence). It is filed as biochemical. The following applies: OMFP 500 μM, 4 hours at 30° C. As to the method:
i) Measurement of the Phosphatase Activity of the Purified Recombinant Enzyme Cdc25C
The phosphatase activity of the protein MBP-Cdc25C is evaluated by the dephosphorylation of 3-O-methylfluorescein-phosphate (OMFP) to 3-O-methylfluorescein (OMF) with a determination of the fluorescence at 475 nm of the reaction product. This test makes it possible to identify inhibitors of the recombinant enzyme cdc25. The preparation of the fusion protein MBP-Cdc25C is described in the Patent Application PCT WO 01/44467.
The reaction is carried out in 384-well plate format at a final volume of 50 μl. The protein MBP-Cdc25C (prepared as described above) is preserved in the following elution buffer: 20 mM Tris-HCl pH 7.4; 250 mM NaCl; 1 mM EDTA; 1 mM of dithiothreitol (DTT); 10 mM maltose. It is diluted to a concentration of 60 μM in the following reaction buffer: 50 mM Tris-HCl pH 8.2; 50 mM NaCl; 1 mM DTT; 20% glycerol. Measurement of the background noise is carried out with the buffer without the addition of the enzyme. The products are tested at decreasing concentrations starting from 40 μM. The reaction is initiated by the addition of an OMFP solution at 500 μM final (prepared extemporaneously from a 12.5 mM stock solution in 100% DMSO (Sigma #M2629)). After 4 hours at 30° C. in a single-use 384-well plate, the fluorescence measured at OD 475 nm is read using a Victor^2 plate reader (EGG-Wallac). The determination of the concentration inhibiting the enzyme reaction by 50% is calculated from three independent experiments. Only the values contained in the linear part of the sigmoid are retained for linear regression analysis.

Data set [2] concerns Mia-Paca2 lines (human pancreatic cancer cells). Nature of the data set: Anti-proliferative activity, WST1 colorimetric test, Mia-Paca2 cells. It is filed as cell-based. The following applies: MIA PaCa-2, 96 hours treatment, up to 10 μM, read-out: IC50 on the cell proliferation of the Mia-Paca2 lines. As to the method: (§1) ii) Characterization of Anti-Proliferative Activity:
(§2) By way of example, the effect of a treatment by the compounds of the examples described previously on two lines of human Mia-Paca2 and DU145 cells will be studied. The cell lines DU145 (human prostate cancer cells) and Mia-PaCa2 (human pancreatic cancer cells) were acquired from the American Tissue Culture Collection (Rockville, Md., USA). The cells placed in 80 μl of Dulbecco's Modified Eagle medium (Gibco-Brl, Cergy-Pontoise, France) completed with 10% foetal calf serum inactivated by heating (Gibco-Brl, Cergy-Pontoise, France), 50,000 units/l of penicillin and 50 mg/l streptomycin (Gibco-Brl, Cergy-Pontoise, France), and 2 mM of glutamine (Gibco-Brl, Cergy-Pontoise, France) were seeded on a 96-well plate on day 0. The cells were treated on day 1 for 96 hours at increasing concentrations of each of the compounds to be tested up to 10 μM. At the end of the of this period, quantification of the cell proliferation is evaluated by a colorimetric test based on the cleavage of the tetrazolium salt WST1 by the mitochondrial dehydrogenases in the viable cells leading to the formation of formazan (Boehringer Mannheim, Meylan, France). These tests are carried out in duplicate with 8 determinations per concentration tested. For each compound to be tested, the values included in the linear part of the sigmoid were retained for linear regression analysis and used in order to estimate the inhibitory concentration IC50. The products are solubilized in dimethylsulphoxide (DMSO) at to 10^−2M and finally used in culture with 0.1% DMSO.

The subject of data set [3] is DU-145 lines (human prostate cancer cells). Nature of the data set: Anti-proliferative activity, WST1 colorimetric test, DU145 cells. It is filed as cell-based. The following applies: 96 hours treatment, up to 10 μM, read-out: IC50 on the cell proliferation of the DU-145 lines. As to the method: as §1, §2

In the case of `COc1ccc(C(=O)N2CCN(C(=O)c3nc4c(s3)C(=O)C=C(NCCCN(C)CCCNC3=CC(=O)c5sc(C(=O)N6CCN(C(=O)c7ccc(OC)cc7)CC6)nc5C3=O)C4=O)CC2)cc1` [Example 36, 5.5′-[(methylimino)bis(propane-3,1-diylimino)]bis(2-([4-(4-methoxybenzoyl)piperazin-1-yl]carbonyl)-1,3-benzothiazole-4,7-dione)], the melting point fell in the range of 202 to 203 °C. For the same compound, in data set [1], the pIC50 is no less than 6.00. Also, the pIC50 in data set [2] is no less than 5.00. The pIC50 in data set [3] is no less than 5.00.
In turn, `CN(CCCNC1=CC(=O)c2sc(C(=O)N3CCN(C(=O)c4ccco4)CC3)nc2C1=O)CCCNC1=CC(=O)c2sc(C(=O)N3CCN(C(=O)c4ccco4)CC3)nc2C1=O` [Example 37, 5.5′-[(methylimino)bis(propane-3,1-diylimino)]bis(2-{[4-(2-furoyl)piperazin-1-yl]carbonyl}-1,3-benzothiazole-4,7-dione)] displayed a melting point of 173 to 174 °C. Also, the pIC50 in data set [1] was no less than 6.00. Further, the pIC50 in data set [2] was no less than 5.00. In addition, the pIC50 in data set [3] was no less than 5.00.
On to `COc1ccc(NC(=O)c2nc3c(s2)C(=O)C=C(NCCCN(C)CCCNC2=CC(=O)c4sc(C)nc4C2=O)C3=O)cc1` [Example 41, N-(4-methoxyphenyl)-5-{[3-(methyl{3-[(2-methyl-4,7-dioxo-4,7-dihydro-1,3-benzothiazol-5-yl)amino]propyl}amino)propyl]amino}-4,7-dioxo-4,7-dihydro-1,3-benzothiazole-2-carboxamide], for which the melting point is 141 to 142 °C. Moreover, in data set [1], the pIC50 is no less than 6.00. In data set [2], the pIC50 was no less than 5.00. Also, the pIC50 in data set [3] was no less than 5.00.
`Cc1nc2c(s1)C(=O)C(NCCCN(C)CCCNC1=CC(=O)c3sc(C(=O)N4CCN(C(=O)C5CCCO5)CC4)nc3C1=O)=CC2=O` (centres unmarked) [Example 42, 5-{[3-(methyl{3-[(2-methyl-4,7-dioxo-4,7-dihydro-1,3-benzothiazol-6-yl)amino]propyl}amino)propyl]amino}-2-{[4-(tetrahydrofuran-2-ylcarbonyl)piperazin-1-yl]carbonyl}-1,3-benzothiazole-4,7-dione]: the melting point lay within 121 to 122 °C. The pIC50 in data set [1] was no less than 6.00. Further, the pIC50 in data set [2] was no less than 5.00. Besides, in data set [3], the pIC50 is no less than 5.00.
`CCNC(=O)c1nc2c(s1)C(=O)C=C(NCCCN(C)CCCNC1=CC(=O)c3sc(C)nc3C1=O)C2=O` [Example 43, N-ethyl-5-{[3-(methyl{3-[(2-methyl-4,7-dioxo-4,7-dihydro-1,3-benzothiazol-5-yl)amino]propyl}amino)propyl]amino}-4,7-dioxo-4,7-dihydro-1,3-benzothiazole-2-carboxamide] registered a melting point of 107 to 108 °C. In addition, the pIC50 in data set [1] was no less than 6.00. In data set [2], the pIC50 is no less than 5.00. The pIC50 in data set [3] was no less than 5.00.
